# According to patent EP0327492A1, “Herbicidally and plantgrowth regulatory active quinoline and pyrindine compounds” (CIBA-GEIGY AG, priority 1988, dated 1989):
# Legend:
# Assay type in all cases: in vivo
# Abutilon [1] = experiment: Pre-emergent herbicidal action (B.2); conditions: 500 bis 2000 [g/ha], evaluated after 3 weeks
# Description: (§1) Im Gewächshaus wird unmittelbar nach der Einsaat der Versuchspflanzen in Saatschalen die Erdoberfläche mit einer wässrigen Dispersion der Wirkstoffe, erhalten aus einem 25 %igen Emulsionskonzentrat behandelt. Es werden Konzentrationen von 2000-500 g Wirksubstanz/Hektar angewendet. Die Saatschalen werden im Gewächshaus bei 22-25° C und 50-70 % relativer Luftfeuchtigkeit gehalten und der Versuch nach 3 Wochen ausgewertet und die Resultate nach folgender Notenskala ausgewertet. • 1 Pflanze hat nicht gekeimt oder ist eingegangen • 2-3 sehr starke Schäden • 4 starke Schäden • 5 mittlere Schäden, die Pflanzen sind verkümmert • 6 Schäden, die Pflanze kann regenerieren • 7-8 leichte Schäden • 9 normales Wachstum, wie das unbehandelter Pflanzen
# (§2) Boniturnoten von 1 bis 4 (insbesondere von 1 bis 3) weisen auf eine gute bis sehr gute Herbizidwirkung hin. Boniturnoten von 6 bis 9 (insbesondere 7 bis 9) weisen auf eine gute Toleranz (insbesondere bei Kulturpflanzen) hin.
# Alopecurus myos. [2] = experiment: Pre-emergent herbicidal action (B.2); conditions: 500 bis 2000 [g/ha], evaluated after 3 weeks
# Description: as §1, §2
# Amaranthus ret. [3] = experiment: Pre-emergent herbicidal action (B.2); conditions: 500 bis 2000 [g/ha], evaluated after 3 weeks
# Description: as §1, §2
# Avena fatua [4] = experiment: Pre-emergent herbicidal action (B.2); conditions: 500 bis 2000 [g/ha], evaluated after 3 weeks
# Description: as §1, §2
# Bromus tectorum [5] = experiment: Pre-emergent herbicidal action (B.2); conditions: 500 bis 2000 [g/ha], evaluated after 3 weeks
# Description: as §1, §2
# Chenopodium Sp. [6] = experiment: Pre-emergent herbicidal action (B.2); conditions: 500 bis 2000 [g/ha], evaluated after 3 weeks
# Description: as §1, §2
# Chrysanthe. leuc. [7] = experiment: Pre-emergent herbicidal action (B.2); conditions: 500 bis 2000 [g/ha], evaluated after 3 weeks
# Description: as §1, §2
# Digitaria sang. [8] = experiment: Pre-emergent herbicidal action (B.2); conditions: 500 bis 2000 [g/ha], evaluated after 3 weeks
# Description: as §1, §2
# Echinochloa crus galli [9] = experiment: Pre-emergent herbicidal action (B.2); conditions: 500 bis 2000 [g/ha], evaluated after 3 weeks
# Description: as §1, §2
# Galium aparine [10] = experiment: Pre-emergent herbicidal action (B.2); conditions: 500 bis 2000 [g/ha], evaluated after 3 weeks
# Description: as §1, §2
# Ipomoea = experiment: Pre-emergent herbicidal action (B.2); conditions: 500 bis 2000 [g/ha], evaluated after 3 weeks
# Description: as §1, §2
# Lolium perenne [11] = experiment: Pre-emergent herbicidal action (B.2); conditions: 500 bis 2000 [g/ha], evaluated after 3 weeks
# Description: as §1, §2
# Sinapis [12] = experiment: Pre-emergent herbicidal action (B.2); conditions: 500 bis 2000 [g/ha], evaluated after 3 weeks
# Description: as §1, §2
# Solanum nigrum [13] = experiment: Pre-emergent herbicidal action (B.2); conditions: 500 bis 2000 [g/ha], evaluated after 3 weeks
# Description: as §1, §2
# Sorghum halep. [14] = experiment: Pre-emergent herbicidal action (B.2); conditions: 500 bis 2000 [g/ha], evaluated after 3 weeks
# Description: as §1, §2
# Stellaria [15] = experiment: Pre-emergent herbicidal action (B.2); conditions: 500 bis 2000 [g/ha], evaluated after 3 weeks
# Description: as §1, §2
# Veronica Sp. [16] = experiment: Pre-emergent herbicidal action (B.2); conditions: 500 bis 2000 [g/ha], evaluated after 3 weeks
# Description: as §1, §2
# Soja [17] = experiment: Pre-emergent herbicidal action (B.2), crop tolerance; conditions: 500 bis 2000 [g/ha], evaluated after 3 weeks
# Description: as §1, §2
# Abutilon [18] = experiment: Post-emergent herbicidal action, contact herbicide (B.3); conditions: 500 bis 2000 [g/ha], 15 days after treatment
# Outline: (§3)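 Contact activity is rated on a 1-9 scale, lower meaning more damage, 15 days after weeds at 4-6 leaves receive a spray of 2000-500 g active ingredient/ha in water. Conditions during the test are 24-26 °C and 45-60% relative humidity.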
# Alopecurus myos. [19] = experiment: as above; conditions: 500 bis 2000 [g/ha], 15 days after treatment
# Outline: as §3
# Amaranthus ret. [20] = experiment: as above; conditions: 500 bis 2000 [g/ha], 15 days after treatment
# Outline: as §3
# Avena fatua [21] = experiment: as above; conditions: 500 bis 2000 [g/ha], 15 days after treatment
# Outline: as §3
# Bromus tectorum [22] = experiment: as above; conditions: 500 bis 2000 [g/ha], 15 days after treatment
# Outline: as §3
# Chenopodium Sp. [23] = experiment: as above; conditions: 500 bis 2000 [g/ha], 15 days after treatment
# Outline: as §3
# Chrysanthe. leuc. [24] = experiment: as above; conditions: 500 bis 2000 [g/ha], 15 days after treatment
# Outline: as §3
# Digitaria sang. [25] = experiment: as above; conditions: 500 bis 2000 [g/ha], 15 days after treatment
# Outline: as §3
# Echinochloa crus galli [26] = experiment: as above; conditions: 500 bis 2000 [g/ha], 15 days after treatment
# Outline: as §3
# Galium aparine [27] = experiment: as above; conditions: 500 bis 2000 [g/ha], 15 days after treatment
# Outline: as §3
# Lolium perenne [28] = experiment: as above; conditions: 500 bis 2000 [g/ha], 15 days after treatment
# Outline: as §3
# Sinapis [29] = experiment: as above; conditions: 500 bis 2000 [g/ha], 15 days after treatment
# Outline: as §3
# Solanum nigrum [30] = experiment: as above; conditions: 500 bis 2000 [g/ha], 15 days after treatment
# Outline: as §3
# Sorghum halep. [31] = experiment: as above; conditions: 500 bis 2000 [g/ha], 15 days after treatment
# Outline: as §3
# Stellaria [32] = experiment: as above; conditions: 500 bis 2000 [g/ha], 15 days after treatment
# Outline: as §3
# Veronica Sp. [33] = experiment: as above; conditions: 500 bis 2000 [g/ha], 15 days after treatment
# Outline: as §3
# Xanthium Sp. = experiment: as above; conditions: 500 bis 2000 [g/ha], 15 days after treatment
# Outline: as §3
# Baumwolle = experiment: Post-emergent herbicidal action (B.3), crop tolerance; conditions: 500 bis 2000 [g/ha], 15 days after treatment
# Description: as §1, §2
# (§4) Eine Anzahl Unkräuter, sowohl monokotyle wie dikotyle, werden nach dem Auflaufen (im 4- bis 6-Blattstadium) mit einer wässrigen Wirkstoffdispersion in einer Dosierung von 2000-500 g Wirksubstanz pro Hektar auf die Pflanzen gespritzt und diese bei 24°-26°C und 45-60 % relativer Luftfeuchtigkeit gehalten. 15 Tage nach der Behandlung wird der Versuch nach dem in Beispiel B.2. gegebenen Massstab bewertet.
# Soja [34] = experiment: as above; conditions: 500 bis 2000 [g/ha], 15 days after treatment
# Description: as §1, §2, §4
smiles,measurement,setting,value
"CC1CCCc2nc(C3=NC(=O)C(C)(C(C)C)N3)c(C(=O)O)cc21 (stereo not shown) [Verbindung 2.02, 2-(5-Isopropyl-5-methyl-1 H-imidazol-4-on-2-yl)-5-methyl-5,6,7,8-tetrahydrochinolin-3-carbonsäure]",Herbizidwirkung,Abutilon [1],gute bis sehr gute Herbizidwirkung (Boniturnoten von 1 bis 4 (insbesondere von 1 bis 3) weisen auf eine gute bis sehr gute Herbizidwirkung hin)
same,Herbizidwirkung,Alopecurus myos. [2],gute bis sehr gute Herbizidwirkung (Boniturnoten von 1 bis 4 (insbesondere von 1 bis 3) weisen auf eine gute bis sehr gute Herbizidwirkung hin)
same,Herbizidwirkung,Amaranthus ret. [3],gute bis sehr gute Herbizidwirkung (Boniturnoten von 1 bis 4 (insbesondere von 1 bis 3) weisen auf eine gute bis sehr gute Herbizidwirkung hin)
same,Herbizidwirkung,Avena fatua [4],gute bis sehr gute Herbizidwirkung (Boniturnoten von 1 bis 4 (insbesondere von 1 bis 3) weisen auf eine gute bis sehr gute Herbizidwirkung hin)
same,Herbizidwirkung,Bromus tectorum [5],gute bis sehr gute Herbizidwirkung (Boniturnoten von 1 bis 4 (insbesondere von 1 bis 3) weisen auf eine gute bis sehr gute Herbizidwirkung hin)
same,Herbizidwirkung,Chenopodium Sp. [6],gute bis sehr gute Herbizidwirkung (Boniturnoten von 1 bis 4 (insbesondere von 1 bis 3) weisen auf eine gute bis sehr gute Herbizidwirkung hin)
same,Herbizidwirkung,Chrysanthe. leuc. [7],gute bis sehr gute Herbizidwirkung (Boniturnoten von 1 bis 4 (insbesondere von 1 bis 3) weisen auf eine gute bis sehr gute Herbizidwirkung hin)
same,Herbizidwirkung,Digitaria sang. [8],gute bis sehr gute Herbizidwirkung (Boniturnoten von 1 bis 4 (insbesondere von 1 bis 3) weisen auf eine gute bis sehr gute Herbizidwirkung hin)
same,Herbizidwirkung,Echinochloa crus galli [9],gute bis sehr gute Herbizidwirkung (Boniturnoten von 1 bis 4 (insbesondere von 1 bis 3) weisen auf eine gute bis sehr gute Herbizidwirkung hin)
same,Herbizidwirkung,Galium aparine [10],gute bis sehr gute Herbizidwirkung (Boniturnoten von 1 bis 4 (insbesondere von 1 bis 3) weisen auf eine gute bis sehr gute Herbizidwirkung hin)
same,Herbizidwirkung,Ipomoea,gute bis sehr gute Herbizidwirkung (Boniturnoten von 1 bis 4 (insbesondere von 1 bis 3) weisen auf eine gute bis sehr gute Herbizidwirkung hin)
same,Herbizidwirkung,Lolium perenne [11],gute bis sehr gute Herbizidwirkung (Boniturnoten von 1 bis 4 (insbesondere von 1 bis 3) weisen auf eine gute bis sehr gute Herbizidwirkung hin)
same,Herbizidwirkung,Sinapis [12],gute bis sehr gute Herbizidwirkung (Boniturnoten von 1 bis 4 (insbesondere von 1 bis 3) weisen auf eine gute bis sehr gute Herbizidwirkung hin)
same,Herbizidwirkung,Solanum nigrum [13],gute bis sehr gute Herbizidwirkung (Boniturnoten von 1 bis 4 (insbesondere von 1 bis 3) weisen auf eine gute bis sehr gute Herbizidwirkung hin)
same,Herbizidwirkung,Sorghum halep. [14],gute bis sehr gute Herbizidwirkung (Boniturnoten von 1 bis 4 (insbesondere von 1 bis 3) weisen auf eine gute bis sehr gute Herbizidwirkung hin)
same,Herbizidwirkung,Stellaria [15],gute bis sehr gute Herbizidwirkung (Boniturnoten von 1 bis 4 (insbesondere von 1 bis 3) weisen auf eine gute bis sehr gute Herbizidwirkung hin)
same,Herbizidwirkung,Veronica Sp. [16],gute bis sehr gute Herbizidwirkung (Boniturnoten von 1 bis 4 (insbesondere von 1 bis 3) weisen auf eine gute bis sehr gute Herbizidwirkung hin)
same,Toleranz (im Wachstum beeinflusst),Soja [17],gute Toleranz (Boniturnoten von 6 bis 9 (insbesondere 7 bis 9) weisen auf eine gute Toleranz (insbesondere bei Kulturpflanzen) hin)
same,Herbizidwirkung,Abutilon [18],gute bis sehr gute Herbizidwirkung (Boniturnoten von 1 bis 4 (insbesondere von 1 bis 3) weisen auf eine gute bis sehr gute Herbizidwirkung hin)
same,Herbizidwirkung,Alopecurus myos. [19],gute bis sehr gute Herbizidwirkung (Boniturnoten von 1 bis 4 (insbesondere von 1 bis 3) weisen auf eine gute bis sehr gute Herbizidwirkung hin)
same,Herbizidwirkung,Amaranthus ret. [20],gute bis sehr gute Herbizidwirkung (Boniturnoten von 1 bis 4 (insbesondere von 1 bis 3) weisen auf eine gute bis sehr gute Herbizidwirkung hin)
same,Herbizidwirkung,Avena fatua [21],gute bis sehr gute Herbizidwirkung (Boniturnoten von 1 bis 4 (insbesondere von 1 bis 3) weisen auf eine gute bis sehr gute Herbizidwirkung hin)
same,Herbizidwirkung,Bromus tectorum [22],gute bis sehr gute Herbizidwirkung (Boniturnoten von 1 bis 4 (insbesondere von 1 bis 3) weisen auf eine gute bis sehr gute Herbizidwirkung hin)
same,Herbizidwirkung,Chenopodium Sp. [23],gute bis sehr gute Herbizidwirkung (Boniturnoten von 1 bis 4 (insbesondere von 1 bis 3) weisen auf eine gute bis sehr gute Herbizidwirkung hin)
same,Herbizidwirkung,Chrysanthe. leuc. [24],gute bis sehr gute Herbizidwirkung (Boniturnoten von 1 bis 4 (insbesondere von 1 bis 3) weisen auf eine gute bis sehr gute Herbizidwirkung hin)
same,Herbizidwirkung,Digitaria sang. [25],gute bis sehr gute Herbizidwirkung (Boniturnoten von 1 bis 4 (insbesondere von 1 bis 3) weisen auf eine gute bis sehr gute Herbizidwirkung hin)
same,Herbizidwirkung,Echinochloa crus galli [26],gute bis sehr gute Herbizidwirkung (Boniturnoten von 1 bis 4 (insbesondere von 1 bis 3) weisen auf eine gute bis sehr gute Herbizidwirkung hin)
same,Herbizidwirkung,Galium aparine [27],gute bis sehr gute Herbizidwirkung (Boniturnoten von 1 bis 4 (insbesondere von 1 bis 3) weisen auf eine gute bis sehr gute Herbizidwirkung hin)
same,Herbizidwirkung,Lolium perenne [28],gute bis sehr gute Herbizidwirkung (Boniturnoten von 1 bis 4 (insbesondere von 1 bis 3) weisen auf eine gute bis sehr gute Herbizidwirkung hin)
same,Herbizidwirkung,Sinapis [29],gute bis sehr gute Herbizidwirkung (Boniturnoten von 1 bis 4 (insbesondere von 1 bis 3) weisen auf eine gute bis sehr gute Herbizidwirkung hin)
same,Herbizidwirkung,Solanum nigrum [30],gute bis sehr gute Herbizidwirkung (Boniturnoten von 1 bis 4 (insbesondere von 1 bis 3) weisen auf eine gute bis sehr gute Herbizidwirkung hin)
same,Herbizidwirkung,Sorghum halep. [31],gute bis sehr gute Herbizidwirkung (Boniturnoten von 1 bis 4 (insbesondere von 1 bis 3) weisen auf eine gute bis sehr gute Herbizidwirkung hin)
same,Herbizidwirkung,Stellaria [32],gute bis sehr gute Herbizidwirkung (Boniturnoten von 1 bis 4 (insbesondere von 1 bis 3) weisen auf eine gute bis sehr gute Herbizidwirkung hin)
same,Herbizidwirkung,Veronica Sp. [33],gute bis sehr gute Herbizidwirkung (Boniturnoten von 1 bis 4 (insbesondere von 1 bis 3) weisen auf eine gute bis sehr gute Herbizidwirkung hin)
same,Herbizidwirkung,Xanthium Sp.,gute bis sehr gute Herbizidwirkung (Boniturnoten von 1 bis 4 (insbesondere von 1 bis 3) weisen auf eine gute bis sehr gute Herbizidwirkung hin)
same,Toleranz (im Wachstum beeinflusst),Baumwolle,gute Toleranz (Boniturnoten von 6 bis 9 (insbesondere 7 bis 9) weisen auf eine gute Toleranz (insbesondere bei Kulturpflanzen) hin)
same,Toleranz (im Wachstum beeinflusst),Soja [34],gute Toleranz (Boniturnoten von 6 bis 9 (insbesondere 7 bis 9) weisen auf eine gute Toleranz (insbesondere bei Kulturpflanzen) hin)
